Results taken from paper PMC9268025, “GC-MS/MS Quantification of EGFR Inhibitors, β-Sitosterol, Betulinic Acid, (+) Eriodictyol, (+) Epipinoresinol, and Secoisolariciresinol, in Crude Extract and Ethyl Acetate Fraction of Thonningia sanguinea” (Molecules, 2022).

Target: epidermal growth factor receptor (EGFR) (Homo sapiens, UniProt P00533)
Assay: ADP-Glo EGFR kinase inhibition assay (Promega V9261), eight concentrations
Type: biochemical

Chain of epidermal growth factor receptor (EGFR) (P00533 25-1210): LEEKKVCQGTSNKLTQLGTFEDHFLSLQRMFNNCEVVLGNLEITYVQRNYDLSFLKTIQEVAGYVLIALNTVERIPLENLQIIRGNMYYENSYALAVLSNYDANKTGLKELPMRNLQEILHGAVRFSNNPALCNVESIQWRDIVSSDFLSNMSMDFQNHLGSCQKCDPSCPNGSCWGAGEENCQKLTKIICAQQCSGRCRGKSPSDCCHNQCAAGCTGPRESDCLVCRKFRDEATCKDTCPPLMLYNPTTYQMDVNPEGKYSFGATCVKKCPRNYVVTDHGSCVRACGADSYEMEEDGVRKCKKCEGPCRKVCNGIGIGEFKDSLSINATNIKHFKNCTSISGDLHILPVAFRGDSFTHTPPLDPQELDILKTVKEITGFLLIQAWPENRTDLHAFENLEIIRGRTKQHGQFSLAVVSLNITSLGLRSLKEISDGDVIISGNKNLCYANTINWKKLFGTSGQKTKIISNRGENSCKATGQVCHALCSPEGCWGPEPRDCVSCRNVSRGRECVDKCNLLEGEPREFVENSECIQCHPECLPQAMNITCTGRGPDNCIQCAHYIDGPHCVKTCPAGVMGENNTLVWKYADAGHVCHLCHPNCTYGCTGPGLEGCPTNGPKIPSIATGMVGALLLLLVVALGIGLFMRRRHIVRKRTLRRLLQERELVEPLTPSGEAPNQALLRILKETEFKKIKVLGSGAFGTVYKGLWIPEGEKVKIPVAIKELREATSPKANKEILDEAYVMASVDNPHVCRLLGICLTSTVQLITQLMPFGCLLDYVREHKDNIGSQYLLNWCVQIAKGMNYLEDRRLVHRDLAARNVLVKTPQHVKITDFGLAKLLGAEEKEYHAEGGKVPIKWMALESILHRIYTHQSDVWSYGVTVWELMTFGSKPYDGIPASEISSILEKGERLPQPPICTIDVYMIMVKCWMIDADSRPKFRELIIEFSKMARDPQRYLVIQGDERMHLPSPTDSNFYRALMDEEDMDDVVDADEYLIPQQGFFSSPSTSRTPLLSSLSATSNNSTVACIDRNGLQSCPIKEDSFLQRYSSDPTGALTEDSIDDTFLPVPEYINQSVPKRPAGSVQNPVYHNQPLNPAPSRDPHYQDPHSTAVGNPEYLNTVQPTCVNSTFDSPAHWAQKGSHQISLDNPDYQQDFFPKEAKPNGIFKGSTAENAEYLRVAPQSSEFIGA

| SMILES | IC50 [nM] |
| --- | --- |
| O=C1C[C@@H](c2ccc(O)c(O)c2)Oc2cc(O)cc(O)c21 [(+) Eriodictyol] | 76.2 |
| COc1cc(C[C@@H](CO)[C@H](CO)Cc2ccc(O)c(OC)c2)ccc1O [Secoisolariciresinol] | 80.3 |
